In general, Ki refers to the equilibrium dissociation constant of an inhibitor or competing ligand from its target.

The experiment deals with T1, human adenosine A2A receptor (Homo sapiens, UniProt P29274).
T1 construct: expressed in transfected cells; host or cells: CHO cells, Semliki Forest virus expression system; membrane preparation
T1 sequence (P29274 whole entry): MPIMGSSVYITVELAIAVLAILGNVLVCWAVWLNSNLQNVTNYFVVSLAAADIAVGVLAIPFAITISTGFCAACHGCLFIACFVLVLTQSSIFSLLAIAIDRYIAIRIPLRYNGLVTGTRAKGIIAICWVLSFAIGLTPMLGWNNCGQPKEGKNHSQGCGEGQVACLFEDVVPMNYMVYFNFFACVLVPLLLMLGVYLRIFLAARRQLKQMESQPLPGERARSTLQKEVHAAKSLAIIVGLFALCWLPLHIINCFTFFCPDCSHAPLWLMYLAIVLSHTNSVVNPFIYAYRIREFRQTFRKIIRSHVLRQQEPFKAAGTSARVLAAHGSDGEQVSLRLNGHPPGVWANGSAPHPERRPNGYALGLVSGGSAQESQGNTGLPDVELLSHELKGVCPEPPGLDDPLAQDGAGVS
As to the kind of experiment: [3H]-SCH-58261 binding assay, human adenosine A2A receptor. To be noted: membranes of CHO cells recombinantly expressing the human A2A receptor, Ki from IC50 by Cheng-Prussoff equation, read-out: HA2A KI. The protocol: Human Adenosine A2A Receptor
The human adenosine A2A receptor was recombinantly expressed in Chinese hamster ovary (CHO) cells using the semliki forest virus expression system. Cells were harvested, washed twice by centrifugation, homogenized and again washed by centrifugation. The final washed membrane pellet was suspended in a Tris (50 mM) buffer containing 120 mM NaCl, 5 mM KCl, 2 mM CaCl2 and 10 mM MgCl2 (pH 7.4) (buffer A). The [^3H]-SCH-58261 (Dionisotti et al., 1997, Br. J. Pharmacol. 121, 353) binding assay was carried out in 96-well plates in the presence of 2.5 μg of membrane protein, 0.5 mg of Ysi-poly-l-lysine SPA beads and 0.1 U adenosine deaminase in a final volume of 200 μl of buffer A. Non-specific binding was defined using xanthine amine congener (XAC; 2 μM). Compounds were tested at 10 concentrations from 10 μM to 0.3 nM. All assays were conducted in duplicate and repeated at least twice. Assay plates were incubated for 1 hour at room temperature before centrifugation and then bound ligand was determined using a Packard Topcount scintillation counter. IC50 values were calculated using a non-linear curve fitting program and Ki values calculated using the Cheng-Prussoff equation.
In accordance with the invention, the compounds of formula I have a high affinity toward the A2A receptor. The table below (after Example 10) describes specific values of prepared compounds.
Regarding `COc1ccc(-c2ccccc2)c2nc(NC(=O)c3cccc(C)c3)nn12` [Example 17, N-(5-Methoxy-8-phenyl-[1,2,4]triazolo[1,5-a]pyridin-2-yl)-3-methyl-benzamide], the Ki amounted to 984 nM.
The same measure for `COc1cccc(-c2ccc(OC)n3nc(NC(=O)c4ccc(Br)o4)nc23)c1` [Example 16, 5-Bromo-furan-2-carboxylic acid [5-methoxy-8-(3-methoxy-phenyl)-[1,2,4]triazolo[1,5-a]pyridin-2-yl]-amide]: 560 nM; for `COc1ccc(-c2ccc(F)cc2)c2nc(NC(=O)c3ccc(Br)cc3)nn12` [Example 12, 4-Bromo-N-[8-(4-fluoro-phenyl)-5-methoxy-[1,2,4]triazolo[1,5-a]pyridin-2-yl]-benzamide]: 776 nM; for `COc1cccc(-c2ccc(OC)n3nc(NC(=O)c4ccc(F)cc4)nc23)c1` [Example 19, 4-Fluoro-N-[5-methoxy-8-(3-methoxy-phenyl)-[1,2,4]triazolo[1,5-a]pyridin-2-yl]-benzamide]: 748 nM.
Turning to `COc1ccc(-c2ccc(F)cc2)c2nc(NC(=O)c3ccc(F)cc3)nn12` [Example 18, 4-Fluoro-N-[8-(4-fluoro-phenyl)-5-methoxy-[1,2,4]triazolo[1,5-a]pyridin-2-yl]-benzamide], the Ki was 664 nM.
The result for `COc1ccc(-c2ccccc2)c2nc(NC(=O)c3ccc(C(F)(F)F)cc3)nn12` [Example 11, N-(5-Methoxy-8-phenyl-[1,2,4]triazolo[1,5-a]pyridin-2-yl)-4-trifluoromethyl-benzamide] reads 884 nM.
Regarding `COc1ccc(Br)c(C(=O)Nc2nc3c(-c4cccc(F)c4)ccc(OC)n3n2)c1` [Example 14, 2-Bromo-N-[8-(3-fluoro-phenyl)-5-methoxy-[1,2,4]triazolo[1,5-a]pyridin-2-yl]-5-methoxy-benzamide], the Ki was found to be 908 nM.
The result for `COc1cccc(-c2ccc(OC)n3nc(NC(=O)c4ccc(Br)cc4)nc23)c1` [Example 13, 4-Bromo-N-[5-methoxy-8-(3-methoxy-phenyl)-[1,2,4]triazolo[1,5-a]pyridin-2-yl]-benzamide] reads 480 nM; that for `COc1cccc(-c2ccc(OC)n3nc(NC(=O)c4cccs4)nc23)c1` [Example 21, Thiophene-2-carboxylic acid[5-methoxy-8-(3-methoxy-phenyl)-[1,2,4]thiazolo[1,5-a]pyridin-2-yl]-amide], 516 nM.
The result for `COc1ccc(-c2cccc(F)c2)c2nc(NC(=O)c3ccc(Br)o3)nn12` [Example 15, 5-Bromo-furan-2-carboxylic acid [8-(3-fluoro-phenyl)-5-methoxy-[1,2,4]triazolo[1,5-a]pyridin-2-yl]-amide] reads 572 nM.
The result for `COc1ccc(-c2ccc(F)cc2)c2nc(NC(=O)c3ccccc3F)nn12` [Example 20, 2-Fluoro-N-[8-(4-fluoro-phenyl)-5-methoxy-[1,2,4]triazolo[1,5-a]pyridin-2-yl]-benzamide] reads 784 nM.

Values taken from patent publication US6693116B2, “Adenosine receptor ligands” (Hoffmann-La Roche Inc., priority 2001, dated 2004).
